The source of these data is patent US20140296212A1, “SUBSTITUTED PHENOXYPROPYLCYCLOAMINE DERIVATIVES AS HISTAMINE-3 (H3) RECEPTOR LIGANDS” (CEPHALON, INC., priority 2009, published 2014).

SMILES strings stand for the structures. Like-named read-outs stand apart in the source and are kept apart here. Some results are limits rather than exact numbers.

For experiment [1], the target named is T1, human H3 receptor (Homo sapiens, UniProt Q9Y5N1).
T1 construct: expressed in transfected cells
Kind of experiment: Human H3 radioligand binding ([3H]-N-alpha-methylhistamine, SPA). The following applies: membranes of CHO cells expressing human H3. The protocol: Cell pellets were resuspended in 5 mM Tris-HCl, pH 7.5 with 5 nM EDTA and a cocktail of protease inhibitors (Complete Protease Inhibitor Tablets, Roche Diagnostics). Cells were disrupted using a polytron cell homogenizer and the suspension was centrifuged at 1000×g for 10 minutes at 4° C. The pellet was discarded and the supernatant centrifuged at 40,000×g for 30 min at 4° C. This membrane pellet was washed in membrane buffer containing 50 mM Tris-HCl, pH 7.5 with 0.6 mM EDTA, 5 mM MgCl2 and protease inhibitors, recentrifuged as above and the final pellet resuspended in membrane buffer plus 250 mM sucrose and frozen at −80° C.
(§1) Membranes were resuspended in 50 mM Tris HCl (pH 7.4), 5 mM MgCl2, 0.1% BSA. The membrane suspensions (10 μg protein per well) were incubated in a 96 well microtiter plate with [^3H]-N-alpha-methylhistamine (approximately 1 nM final concentration), test compounds at various concentrations (0.01 nM-30 μM) and scintillation proximity beads (Perkin Elmer, FlashBlueGPCR Scintillating Beads) in a final volume of 80 μl for 4 hours at room temperature, protected from light. Non-specific binding was determined in the presence of 10 μM clobenpropit. Radioligand bound to receptor, and therefore in proximity to the scintillation beads, was measured using a MicroBeta scintillation counter.

The target of experiment [2] is T2, rat histamine H3 receptor (Rattus norvegicus, UniProt Q9QYN8).
T2 construct: encoding the entire 445-amino-acid rat histamine H3 receptor; expressed in transfected cells
Kind of experiment: Rat H3 radioligand binding ([3H]-N-alpha-methylhistamine, SPA).
From the text: The rat H3 receptor cDNA was PCR amplified from reverse-transcribed RNA pooled from rat thalamus, hypothalamus, striatum and prefrontal cortex with a sequence corresponding to by #338-1672 of Genbank file #NM_053506, encoding the entire 445-amino-acid rat histamine H3 receptor. This was engineered into the pIRES-neo3 mammalian expression vector, which was stably transfected into the CHO-A3 cell line (Euroscreen, Belgium), followed by clonal selection by limiting dilution. Cells were harvested and cell pellets were frozen (−80° C.). Cell pellets were resuspended in 5 mM Tris-HCl, pH 7.5 with 5 nM EDTA and a cocktail of protease inhibitors (Complete Protease Inhibitor Tablets, Roche Diagnostics). Cells were disrupted using a polytron cell homogenizer and the suspension was centrifuged at 1000×g for 10 minutes at 4° C. The pellet was discarded and the supernatant centrifuged at 40,000×g for 30 min at 4° C. This membrane pellet was washed in membrane buffer containing 50 mM Tris-HCl, pH 7.5 with 0.6 mM EDTA, 5 mM MgCl2 and protease inhibitors, recentrifuged as above and the final pellet resuspended in membrane buffer plus 250 mM sucrose and frozen at −80° C.
as §1

[3] abbreviates: membranes of CHO-A3 cells expressing rat H3, [3H]-N-alpha-methylhistamine, read-out: Rat H3 Ki.

T1 sequence (Q9Y5N1 whole entry): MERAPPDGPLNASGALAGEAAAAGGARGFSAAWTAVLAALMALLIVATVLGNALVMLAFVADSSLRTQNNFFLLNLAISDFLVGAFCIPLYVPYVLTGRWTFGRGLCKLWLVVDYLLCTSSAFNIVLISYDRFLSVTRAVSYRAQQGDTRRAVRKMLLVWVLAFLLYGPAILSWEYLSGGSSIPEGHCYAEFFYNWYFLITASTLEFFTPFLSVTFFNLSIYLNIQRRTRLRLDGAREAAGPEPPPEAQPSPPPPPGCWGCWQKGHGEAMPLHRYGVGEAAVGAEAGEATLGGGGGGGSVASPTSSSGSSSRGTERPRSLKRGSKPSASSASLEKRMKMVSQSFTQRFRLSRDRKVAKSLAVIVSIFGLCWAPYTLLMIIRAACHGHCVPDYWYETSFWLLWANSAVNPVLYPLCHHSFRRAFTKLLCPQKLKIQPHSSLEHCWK
T2 sequence (Q9QYN8 whole entry): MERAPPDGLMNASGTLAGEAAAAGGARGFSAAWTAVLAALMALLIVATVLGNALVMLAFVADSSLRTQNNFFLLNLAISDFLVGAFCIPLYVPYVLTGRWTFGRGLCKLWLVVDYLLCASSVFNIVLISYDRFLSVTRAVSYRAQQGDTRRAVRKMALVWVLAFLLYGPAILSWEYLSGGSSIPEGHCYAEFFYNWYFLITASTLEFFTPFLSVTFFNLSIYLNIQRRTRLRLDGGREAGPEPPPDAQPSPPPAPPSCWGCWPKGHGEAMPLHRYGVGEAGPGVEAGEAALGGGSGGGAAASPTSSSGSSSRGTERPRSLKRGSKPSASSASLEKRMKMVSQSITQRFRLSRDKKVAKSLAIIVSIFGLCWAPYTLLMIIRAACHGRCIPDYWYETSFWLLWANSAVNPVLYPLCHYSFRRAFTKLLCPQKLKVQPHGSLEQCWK

The Ki is a dissociation constant, usually derived from enzyme kinetics or from competition with a known ligand. As for `CC1CCCN1CCCOc1ccc(C(CN2CCOCC2)=NOC(C)(C)C)cc1` (racemic) [Example 165], the inhibition constant Ki in experiment [1] and in experiment [2] (setting [3]) was 0.1 to 100 nM in each case.
`CC1CCCN1CCCOc1ccc(C(=O)CN2CCOCC2)cc1` (stereo not shown) [Example 1, 1-{4-[3-(2-Methyl-pyrrolidin-1-yl)-propoxy]-phenyl}-2-morpholin-4-yl-ethanone] registered a Ki in experiment [2] of 0.1 to 100 nM.
In the case of `C[C@@H]1CCCN1CCCOc1ccc(C(=O)CN2CCCCC2)cc1` [Example 8, 1-{4-[3-((R)-2-Methyl-pyrrolidin-1-yl)-propoxy]-phenyl}-2-piperidin-1-yl-ethanone], the inhibition constant Ki in experiment [1] and in experiment [2] (setting [3]) was 0.1 to 100 nM in each case.
On to `O=C(CN1CCOCC1)c1ccc(OCCCN2CCCC2)cc1` [Example 15, 2-Morpholin-4-yl-1-[4-(3-pyrrolidin-1-yl-propoxy)-phenyl]-ethanone], for which the inhibition constant (Ki) lay in the range of 101 to 500 nM in experiment [1] and 501 to 1000 nM in experiment [2] (setting [3]).
As for `C[C@@H]1CCCN1CCCOc1ccc(C(=O)CN2CCCC2=O)cc1` [Example 21, 1-(2-{4-[3-((R)-2-Methyl-pyrrolidin-1-yl)-propoxy]-phenyl}-2-oxo-ethyl)-pyrrolidin-2-one], the inhibition constant (Ki) lay in the range of 0.1 to 100 nM in experiment [1] and 101 to 500 nM in experiment [2] (setting [3]).
Regarding `C[C@@H]1CCCN1CCCOc1ccc(C(=O)CN2CCCCC2=O)cc1` [Example 22, 1-(2-{4-[3-((R)-2-Methyl-pyrrolidin-1-yl)-propoxy]-phenyl}-2-oxo-ethyl)-piperidin-2-one], the figures for the Ki in experiment [1] and in experiment [2] (setting [3]) were 0.1 to 100 nM and 101 to 500 nM, respectively.
With `CC1CCCN1CCCOc1ccc(C(=O)C(C)N2CCOCC2)cc1` (stereo not shown) [Example 27, 1-{4-[3-(2-Methyl-pyrrolidin-1-yl)-propoxy]-phenyl}-2-morpholin-4-yl-propan-1-one], the inhibition constant Ki in experiment [1] and in experiment [2] was 0.1 to 100 nM in each case.
Turning to `C[C@@H]1CCCN1CCCOc1ccc(C(=O)CN2CCOC(c3ccccc3)C2)cc1` (stereo partly drawn) [Example 29, 1-{4-[3-((R)-2-Methyl-pyrrolidin-1-yl)-propoxy]-phenyl}-2-(2-phenyl-morpholin-4-yl)-ethanone], the Ki in experiment [1] and in experiment [2] (setting [3]) was 0.1 to 100 nM in each case.
With `C[C@@H]1CN(CC(=O)c2ccc(OCCCN3CCC[C@H]3C)cc2)C[C@H](C)O1` [Example 38, 2-((2R,6S)-2,6-Dimethyl-morpholin-4-yl)-1-{4-[3-((R)-2-methyl-pyrrolidin-1-yl)-propoxy]-phenyl}-ethanone], the Ki in experiment [1] and in experiment [2] (setting [3]) was 0.1 to 100 nM in each case.
For the compound `C[C@@H]1CCCN1CCCOc1ccc(C(=O)CN2CCO[C@@H](c3ccccc3)C2)cc1` [Example 39, 1-{4-[3-((R)-2-Methyl-pyrrolidin-1-yl)-propoxy]-phenyl}-2-((S)-2-phenyl-morpholin-4-yl)-ethanone], the Ki in experiment [1] and in experiment [2] (setting [3]) was 0.1 to 100 nM throughout.
As to `C[C@@H]1CCCN1CCCOc1ccc(C(=O)CN2CCO[C@H](c3ccccc3)C2)cc1` [Example 40, 1-{4-[3-((R)-2-Methyl-pyrrolidin-1-yl)-propoxy]-phenyl}-2-((R)-2-phenyl-morpholin-4-yl)-ethanone], the inhibition constant Ki in experiment [1] and in experiment [2] (setting [3]) was 0.1 to 100 nM in each case.
As to `C[C@@H]1CCCN1CCCOc1ccc(C(=O)CN2CCOCC2)cc1` [Example 41, 1-{4-[3-((R)-2-Methyl-pyrrolidin-1-yl)-propoxy]-phenyl}-2-morpholin-4-yl-ethanone], in experiment [2], the Ki was 0.1 to 100 nM.
Take `C[C@H]1CCCN1CCCOc1ccc(C(=O)CN2CCOCC2)cc1` [Example 42, 1-{4-[3-((S)-2-Methyl-pyrrolidin-1-yl)-propoxy]-phenyl}-2-morpholin-4-yl-ethanone]: the Ki in experiment [2] is 501 to 1000 nM.
Regarding `C[C@@H]1CCCN1CCCOc1ccc(C(=O)CN2CCC(C#N)CC2)cc1` [Example 43, 1-(2-{4-[3-((R)-2-Methyl-pyrrolidin-1-yl)-propoxy]-phenyl}-2-oxo-ethyl)-piperidine-4-carbonitrile], the inhibition constant Ki in experiment [1] and in experiment [2] (setting [3]) was 0.1 to 100 nM each time.
Take `CC(C)N1CCC(Oc2ccc(C(=O)CN3CCOCC3)cc2)CC1` [Example 45, 1-[4-(1-Isopropyl-piperidin-4-yloxy)-phenyl]-2-morpholin-4-yl-ethanone]: the figures for the inhibition constant Ki in experiment [1] and in experiment [2] (setting [3]) were 0.1 to 100 nM and 101 to 500 nM, respectively.
Consider `C[C@@H]1CCCN1CCCOc1ccc(C(=O)CN2CCC(C(F)(F)F)CC2)cc1` [Example 47, 1-{4-[3-((R)-2-Methyl-pyrrolidin-1-yl)-propoxy]-phenyl}-2-(4-trifluoromethyl-piperidin-1-yl)-ethanone], for which the Ki in experiment [1] and in experiment [2] (setting [3]) was 0.1 to 100 nM each time.
In the case of `C[C@@H]1CCCN1CCCOc1ccc(C(=O)CN2CCCC(F)(F)C2)cc1` [Example 52, 2-(3,3-Difluoro-piperidin-1-yl)-1-{4-[3-((R)-2-methyl-pyrrolidin-1-yl)-propoxy]-phenyl}-ethanone], the Ki in experiment [1] and in experiment [2] (setting [3]) was 0.1 to 100 nM each time.
With `C[C@@H]1CCCN1CCCOc1ccc(C(=O)C(C)(C)N2CCOCC2)cc1` [Example 54], the Ki in experiment [1] and in experiment [2] (setting [3]) was 0.1 to 100 nM each time.
With `C[C@@H]1CCCN1CCCOc1ccc(C(=O)CN2CCC(F)(F)C2)cc1` [Example 60, 2-(3,3-Difluoro-pyrrolidin-1-yl)-1-{4-[3-((R)-2-methyl-pyrrolidin-1-yl)-propoxy]-phenyl}-ethanone], the Ki in experiment [1] and in experiment [2] (setting [3]) was 0.1 to 100 nM in each case.
With `C[C@@H]1CCCN1CCCOc1ccc(C(=O)CN2CCN(C(=O)C(F)(F)F)CC2)cc1` [Example 64], the Ki in experiment [1] and in experiment [2] (setting [3]) was 0.1 to 100 nM each time.
In the case of `O=C(CN1CCOCC1)c1ccc(OCCCN2CCCC2=O)cc1` [Example 67, 1-{3-[4-(2-Morpholin-4-yl-acetyl)-phenoxy]-propyl}-pyrrolidin-2-one], the Ki in experiment [1] and in experiment [2] (setting [3]) was more than 1000 nM throughout.
For `C[C@@H]1CCCN1CCCOc1ccc(C(=O)CN2CCN(C(=O)c3ccccc3)CC2)cc1` [Example 68, 2-(4-Benzoyl-piperazin-1-yl)-1-{4-[3-((R)-2-methyl-pyrrolidin-1-yl)-propoxy]-phenyl}-ethanone], the inhibitory constant (Ki) in experiment [1] and in experiment [2] (setting [3]) was 0.1 to 100 nM in each case.
Turning to `C[C@@H]1CCCN1CCCOc1ccc(C(=O)CN2Cc3ccccc3C2)cc1` [Example 73, 2-(1,3-Dihydro-isoindol-2-yl)-1-{4-[3-((R)-2-methyl-pyrrolidin-1-yl)-propoxy]-phenyl}-ethanone], the Ki in experiment [1] and in experiment [2] (setting [3]) was 0.1 to 100 nM in each case.
As to `Cc1cc(OCCCN2CCC[C@H]2C)ccc1C(=O)CN1CCOCC1` [Example 74, 1-{2-Methyl-4-[3-((R)-2-methyl-pyrrolidin-1-yl)-propoxy]-phenyl}-2-morpholin-4-yl-ethanone], the Ki lay within 0.1 to 100 nM in experiment [1] and 101 to 500 nM in experiment [2] (setting [3]).
Taken in the same sequence, the figures for `C[C@@H]1CCCN1CCCOc1ccc(C(=O)CN2Cc3ccc(F)cc3C2)cc1` [Example 86, 2-(5-Fluoro-1,3-dihydro-isoindol-2-yl)-1-{4-[3-((R)-2-methyl-pyrrolidin-1-yl)-propoxy]-phenyl}-ethanone] were 0.1 to 100 nM and 0.1 to 100 nM.
Consider `C[C@@H]1CCCN1CCCOc1ccc(C(=O)CN2CCN(C(=O)c3ccccc3)CC2)c(F)c1` [Example 103, 2-(4-Benzoyl-piperazin-1-yl)-1-{2-fluoro-4-[3-((R)-2-methyl-pyrrolidin-1-yl)-propoxy]-phenyl}-ethanone], for which the inhibition constant Ki in experiment [1] and in experiment [2] (setting [3]) was 0.1 to 100 nM in each case.
`Cc1cc(C(=O)CN2CCN(C(=O)c3ccccc3)CC2)ccc1OCCCN1CCC[C@H]1C` [Example 107, 2-(4-Benzoyl-piperazin-1-yl)-1-{3-methyl-4-[3-((R)-2-methyl-pyrrolidin-1-yl)-propoxy]-phenyl}-ethanone]: the inhibition constant Ki in experiment [1] and in experiment [2] (setting [3]) was 0.1 to 100 nM in each case.
`COc1cc(C(=O)CN2CCN(C(=O)c3ccccc3)CC2)ccc1OCCCN1CCC[C@H]1C` [Example 112, 2-(4-Benzoyl-piperazin-1-yl)-1-{3-methoxy-4-[3-((R)-2-methyl-pyrrolidin-1-yl)-propoxy]-phenyl}-ethanone]: the inhibition constant Ki in experiment [1] was 101 to 500 nM; in experiment [2] (setting [3]) it was more than 1000 nM.
Consider `C[C@@H]1CCCN1CCCOc1ccc(/C(CN2CCOCC2)=N/OC2CCCCC2)cc1` [Example 170], for which the Ki in experiment [1] lay within 0.1 to 100 nM.
Same read-out and setting: the figure for `CC(C)O/N=C(\CN1CCOCC1)c1ccc(OCCCN2CCC[C@H]2C)cc1` [Example 171] is 0.1 to 100 nM.
